Experimental data as given in US20220125765A1, “PHARMACEUTICAL COMBINATIONS COMPRISING MEBENDAZOLE AND A STRONG OR MODERATE CYP1A2 INHIBITOR” (ZEPHAPHARM LTD, priority 2019, published 2022).
Where two headings read alike, the source gives them in different places.

What was measured:
CYP2B6 = molecular target: T1, CYP2B6 (Homo sapiens, UniProt P20813); assay: Cytochrome P450 reaction phenotyping, recombinant CYP2B6 (Bactosomes)
T1 sequence (P20813 1-491): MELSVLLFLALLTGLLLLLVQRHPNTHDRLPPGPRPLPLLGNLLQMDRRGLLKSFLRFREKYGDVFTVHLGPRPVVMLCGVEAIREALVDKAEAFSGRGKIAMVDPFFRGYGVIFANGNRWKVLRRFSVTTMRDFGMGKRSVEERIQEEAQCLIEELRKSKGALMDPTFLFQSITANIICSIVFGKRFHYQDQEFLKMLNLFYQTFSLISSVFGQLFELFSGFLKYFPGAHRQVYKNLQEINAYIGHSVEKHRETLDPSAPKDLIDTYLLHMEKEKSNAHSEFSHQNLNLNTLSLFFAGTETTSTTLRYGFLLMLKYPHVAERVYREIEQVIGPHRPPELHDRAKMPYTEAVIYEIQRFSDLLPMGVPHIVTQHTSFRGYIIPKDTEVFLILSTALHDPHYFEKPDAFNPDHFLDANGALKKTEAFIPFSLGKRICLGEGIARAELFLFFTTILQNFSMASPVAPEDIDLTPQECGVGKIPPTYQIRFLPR
Description: (§1) Incubations were also performed using control Bactosomes™ (no P450 enzymes present) to reveal any non-enzymatic degradation. Control compounds known to be metabolised specifically by each P450 isoform were included. All incubations were performed singularly for each test compound.
(§2) Incubations were also performed using control Bactosomes™ (no P450 enzymes present) to reveal any non-enzymatic degradation. Control compounds known to be metabolised specifically by each P450 isoform were included. All incubations were performed singularly for each test compound. […] The reactions were stopped by transferring an aliquot of incubate to quench solvent at the appropriate time points, in a 1:3 ratio. The termination plates were centrifuged at 3,000 rpm for 20 min at 4° C. to precipitate the protein.

CYP2C19 = CYP2C19 (Homo sapiens, UniProt P33261); assay: Cytochrome P450 reaction phenotyping, recombinant CYP2C19 (Bactosomes); details: for Compound Remaining (% of 0 min): CYP2C19, 5 μM
CYP2C19, sequence (P33261 whole entry): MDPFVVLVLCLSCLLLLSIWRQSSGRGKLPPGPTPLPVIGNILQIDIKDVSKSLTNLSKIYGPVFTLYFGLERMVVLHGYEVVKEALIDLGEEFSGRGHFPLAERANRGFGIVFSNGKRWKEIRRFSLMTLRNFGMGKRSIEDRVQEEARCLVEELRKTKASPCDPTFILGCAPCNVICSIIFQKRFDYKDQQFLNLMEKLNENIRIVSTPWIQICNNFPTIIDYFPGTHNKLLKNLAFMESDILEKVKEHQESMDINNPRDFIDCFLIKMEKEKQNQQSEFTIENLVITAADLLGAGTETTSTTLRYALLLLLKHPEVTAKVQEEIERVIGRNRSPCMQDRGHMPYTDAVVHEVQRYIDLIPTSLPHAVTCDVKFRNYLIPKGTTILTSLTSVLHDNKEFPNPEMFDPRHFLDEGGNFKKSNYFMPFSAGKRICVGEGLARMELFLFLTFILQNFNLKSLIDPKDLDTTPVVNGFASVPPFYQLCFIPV
Description: as §1, §2

CYP2D6 = CYP2D6 (Homo sapiens, UniProt P10635); assay: Cytochrome P450 reaction phenotyping, recombinant CYP2D6 (Bactosomes)
CYP2D6, sequence (P10635 whole entry): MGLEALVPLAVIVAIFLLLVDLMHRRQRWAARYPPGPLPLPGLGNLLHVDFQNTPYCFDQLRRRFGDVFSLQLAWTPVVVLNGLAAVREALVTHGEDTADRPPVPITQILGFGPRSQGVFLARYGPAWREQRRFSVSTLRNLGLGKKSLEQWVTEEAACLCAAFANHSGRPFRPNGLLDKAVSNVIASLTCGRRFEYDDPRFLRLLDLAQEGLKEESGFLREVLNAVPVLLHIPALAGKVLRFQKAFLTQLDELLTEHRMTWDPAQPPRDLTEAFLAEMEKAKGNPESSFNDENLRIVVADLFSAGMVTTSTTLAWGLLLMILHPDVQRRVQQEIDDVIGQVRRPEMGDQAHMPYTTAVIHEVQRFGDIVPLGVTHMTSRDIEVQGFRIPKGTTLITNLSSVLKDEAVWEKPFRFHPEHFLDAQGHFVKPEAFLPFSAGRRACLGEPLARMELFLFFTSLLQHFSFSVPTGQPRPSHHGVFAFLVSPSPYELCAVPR
Description: as §1, §2

NBXF SH-SY5Y = assay: 2D monolayer CellTiter-Blue viability, neuroblastoma SH-SY5Y; format: cell-based; details: 72 h
Description: (§3) Seventeen compounds, including mebendazole (Batch no. […] Efficacy of compounds was assessed using CellTiter-Blue® Cell Viability Assay. Anti-tumor activity is expressed as absolute and relative IC50 and IC70 values, calculated by non-linear regression analysis.

SXFS RH-30 = assay: 2D monolayer CellTiter-Blue viability, soft tissue sarcoma RH-30; format: cell-based; details: 72 h
Description: as §3

OVCAR-3 = assay: 2D monolayer CellTiter-Blue viability, ovarian cancer OVCAR-3; format: cell-based; details: for IC50: Homo sapiens; for Test/Control (%) at Drug Concentration: 72 h
Description: (§4) Mebendazole was tested in vitro across a panel of 12 tumor cell lines of ovarian and renal cancer by using a 2D monolayer assay. […] OVXF 899L and RXF 486L are P-gp expressing, multidrug resistant cell lines.
(§5) Anti-tumor activity is expressed as absolute and relative IC50/70 values, calculated by 4-parameter non-linear curve fit.

SK-OV-3 = assay: 2D monolayer CellTiter-Blue viability, ovarian cancer SK-OV-3; format: cell-based; details: for IC50: Homo sapiens; for Test/Control (%) at Drug Concentration: 72 h
Description: as §4, §5

in vitro = details: human; for half-life at 1 μM: cryopreserved hepatocytes; for hepatocyte CLint at 1 µM: cryopreserved hepatocytes (suspension)
Description: The amount of test compound remaining at each time point was analysed by LC-MS/MS. Appropriate control compounds were also incubated.
The final incubation volume was 500 μL. Appropriate control compounds were included, alongside appropriate vehicle control.
The reactions were stopped by transferring 50 μL of incubate to 100 μL acetonitrile containing internal standard at the appropriate time points (0, 5, 10, 20, 40 and 60 min). The termination plates were centrifuged at 2500 rpm at 4° C. for 30 min to precipitate the protein.

## COC(=O)Nc1nc2ccc(C(=O)c3ccccc3)cc2[nH]1 [Mebendazole, methyl N-(6-benzoyl-1H-benzimidazol-2-yl)carbamate]
CYP2B6; CYP2B6, 5 μM, 0 min
  Compound Remaining (% of 0 min): 100 % of 0 min
CYP2B6; CYP2B6, 5 μM, 5 min
  Compound Remaining (% of 0 min): 117 % of 0 min
CYP2B6; CYP2B6, 5 μM, 15 min
  Compound Remaining (% of 0 min): 108 % of 0 min
CYP2B6; CYP2B6, 5 μM, 30 min
  Compound Remaining (% of 0 min): 112 % of 0 min
CYP2B6; CYP2B6, 5 μM, 45 min
  Compound Remaining (% of 0 min): 113 % of 0 min
CYP2B6; CYP2B6, 5 μM, time not stated
  % compound remaining: > 87.5%
CYP2B6; CYP2B6, substrate 5 μM
  t1/2: >2.25 h
CYP2B6; human, recombinant CYP2B6 (Bactosomes), pH 7.4
  half-life at 5 μM: > 2.25 h
CYP2C19; 0 min
  Compound Remaining (% of 0 min): 100 % of 0 min
CYP2C19; 5 min
  Compound Remaining (% of 0 min): 92.6 % of 0 min
CYP2C19; 15 min
  Compound Remaining (% of 0 min): 82.1 % of 0 min
CYP2C19; 30 min
  Compound Remaining (% of 0 min): 76.3 % of 0 min
CYP2C19; 45 min
  Compound Remaining (% of 0 min): 70.5 % of 0 min
CYP2C19; human, recombinant CYP2C19 (Bactosomes), pH 7.4
  half-life at 5 μM: 1.55 h
CYP2D6; CYP2D6, 5 μM, 0 min
  Compound Remaining (% of 0 min): 100 % of 0 min
CYP2D6; CYP2D6, 5 μM, 5 min
  Compound Remaining (% of 0 min): 93.6 % of 0 min
CYP2D6; CYP2D6, 5 μM, 15 min
  Compound Remaining (% of 0 min): 93.3 % of 0 min
CYP2D6; CYP2D6, 5 μM, 30 min
  Compound Remaining (% of 0 min): 94.6 % of 0 min
CYP2D6; CYP2D6, 5 μM, 45 min
  Compound Remaining (% of 0 min): 90.4 % of 0 min
CYP2D6; CYP2D6, 5 μM, time not stated
  % compound remaining: > 87.5%
CYP2D6; CYP2D6, substrate 5 μM
  t1/2: >2.25 h
CYP2D6; human, recombinant CYP2D6 (Bactosomes), pH 7.4
  half-life at 5 μM: > 2.25 h
NBXF SH-SY5Y; 1.0E+00 μM
  Test/Control (%) at Drug Concentration: 1%
NBXF SH-SY5Y; 1.0E+01 μM
  Test/Control (%) at Drug Concentration: 0%
NBXF SH-SY5Y; 1.0E+02 μM
  Test/Control (%) at Drug Concentration: −1%
NBXF SH-SY5Y; 1.0E−01 μM
  Test/Control (%) at Drug Concentration: 63%
NBXF SH-SY5Y; 1.0E−02 μM
  Test/Control (%) at Drug Concentration: 81%
NBXF SH-SY5Y; 3.2E+00 μM
  Test/Control (%) at Drug Concentration: 1%
NBXF SH-SY5Y; 3.2E+01 μM
  Test/Control (%) at Drug Concentration: 0%
NBXF SH-SY5Y; 3.2E−01 μM
  Test/Control (%) at Drug Concentration: 6%
NBXF SH-SY5Y; 3.2E−02 μM
  Test/Control (%) at Drug Concentration: 78%
NBXF SH-SY5Y; 3.2E−03 μM
  Test/Control (%) at Drug Concentration: 94%
SXFS RH-30; RH-30, 1.0E+00 μM
  Test/Control (%) at Drug Concentration: 19%
SXFS RH-30; RH-30, 1.0E+01 μM
  Test/Control (%) at Drug Concentration: 20%
SXFS RH-30; RH-30, 1.0E+02 μM
  Test/Control (%) at Drug Concentration: 5%
SXFS RH-30; RH-30, 1.0E−01 μM
  Test/Control (%) at Drug Concentration: 89%
SXFS RH-30; RH-30, 1.0E−02 μM
  Test/Control (%) at Drug Concentration: 104%
SXFS RH-30; RH-30, 3.2E+00 μM
  Test/Control (%) at Drug Concentration: 21%
SXFS RH-30; RH-30, 3.2E+01 μM
  Test/Control (%) at Drug Concentration: 13%
SXFS RH-30; RH-30, 3.2E−01 μM
  Test/Control (%) at Drug Concentration: 20%
SXFS RH-30; RH-30, 3.2E−02 μM
  Test/Control (%) at Drug Concentration: 95%
SXFS RH-30; RH-30, 3.2E−03 μM
  Test/Control (%) at Drug Concentration: 111%
OVCAR-3; OVCAR-3, 72 h, read-out: Abs. IC50
  IC50: 426 nM
OVCAR-3; OVCAR-3, 72 h, read-out: Rel. IC50
  IC50: 362 nM
OVCAR-3; OVCAR-3, 1.0E+00 μM
  Test/Control (%) at Drug Concentration: 27%
OVCAR-3; OVCAR-3, 1.0E−01 μM
  Test/Control (%) at Drug Concentration: 95%
OVCAR-3; OVCAR-3, 1.0E−02 μM
  Test/Control (%) at Drug Concentration: 97%
OVCAR-3; OVCAR-3, 1.0E−03 μM
  Test/Control (%) at Drug Concentration: 89%
OVCAR-3; OVCAR-3, 1.0E−04 μM
  Test/Control (%) at Drug Concentration: 97%
OVCAR-3; OVCAR-3, 3.2E+00 μM
  Test/Control (%) at Drug Concentration: 26%
OVCAR-3; OVCAR-3, 3.2E−01 μM
  Test/Control (%) at Drug Concentration: 69%
OVCAR-3; OVCAR-3, 3.2E−02 μM
  Test/Control (%) at Drug Concentration: 90%
OVCAR-3; OVCAR-3, 3.2E−03 μM
  Test/Control (%) at Drug Concentration: 93%
OVCAR-3; OVCAR-3, 3.2E−04 μM
  Test/Control (%) at Drug Concentration: 103%
OVCAR-3; OVCAR-3, 72 h
  Abs. IC70: 749 nM
  Rel. IC70: 447 nM
OVCAR-3; OVCAR-3, 72 h, curve fit
  Bot. (%): 26%
  Top (%): 95%
SK-OV-3; SK-OV-3, 72 h, read-out: Abs. IC50
  IC50: 1200 nM
SK-OV-3; SK-OV-3, 72 h, read-out: Rel. IC50
  IC50: 476 nM
SK-OV-3; SK-OV-3, 1.0E+00 μM
  Test/Control (%) at Drug Concentration: 52%
SK-OV-3; SK-OV-3, 1.0E−01 μM
  Test/Control (%) at Drug Concentration: 99%
SK-OV-3; SK-OV-3, 1.0E−02 μM
  Test/Control (%) at Drug Concentration: 98%
SK-OV-3; SK-OV-3, 1.0E−03 μM
  Test/Control (%) at Drug Concentration: 100%
SK-OV-3; SK-OV-3, 1.0E−04 μM
  Test/Control (%) at Drug Concentration: 94%
SK-OV-3; SK-OV-3, 3.2E+00 μM
  Test/Control (%) at Drug Concentration: 45%
SK-OV-3; SK-OV-3, 3.2E−01 μM
  Test/Control (%) at Drug Concentration: 84%
SK-OV-3; SK-OV-3, 3.2E−02 μM
  Test/Control (%) at Drug Concentration: 102%
SK-OV-3; SK-OV-3, 3.2E−03 μM
  Test/Control (%) at Drug Concentration: 101%
SK-OV-3; SK-OV-3, 3.2E−04 μM
  Test/Control (%) at Drug Concentration: 104%
SK-OV-3; SK-OV-3, 72 h
  Abs. IC70: >3200 nM
  Rel. IC70: 679 nM
SK-OV-3; SK-OV-3, 72 h, curve fit
  Bot. (%): 44%
  Top (%): 100%
In vitro
  half-life at 1 μM: 1.92 h
  hepatocyte CLint at 1 µM: 12.1 ± 0.601 µL/min/1e6 cells
In vitro; with cimetidine 30 µM
  hepatocyte CLint at 1 µM: 24.8 ± 1.82 µL/min/1e6 cells
In vitro; with cimetidine 100 µM
  hepatocyte CLint at 1 µM: 18 ± 1.19 µL/min/1e6 cells
In vitro; with cimetidine 300 µM
  hepatocyte CLint at 1 µM: 24.8 ± 2.36 µL/min/1e6 cells
In vitro; with fluvoxamine 3 µM
  hepatocyte CLint at 1 µM: 8.14 ± 1.53 µL/min/1e6 cells
In vitro; with fluvoxamine 10 μM
  hepatocyte CLint at 1 µM: 10.8 ± 2.32 µL/min/1e6 cells
  half-life at 1 μM: 2.13 h
In vitro; with cimetidine 30 μM
  half-life at 1 μM: 0.932 h
In vitro; with cimetidine 100 μM
  half-life at 1 μM: 1.29 h
In vitro; with cimetidine 300 μM
  half-life at 1 μM: 0.932 h
In vitro; with fluvoxamine 3 μM
  half-life at 1 μM: 2.83 h
In vitro; with mexiletine 10 μM
  half-life at 1 μM: 5.1 h
In vitro; with mexiletine 30 μM
  half-life at 1 μM: 2.2 h
In vitro; with mexiletine 100 μM
  half-life at 1 μM: 2 h
